Values joined by “and” are separate entries in the source; they are usually repeats but may differ in a detail not shown here. Equal entries are not always repeated. Inconclusive results are not listed.
System: CD8F1 mice, subcutaneous mammary adenocarcinoma, T/C%
Assay: NCI In Vivo Anticancer Drug Screen. Data for tumor model Mammary Adenocarcinoma CD8F1 (subcutaneous) in CD8F1
Details: higher = larger tumour
Outline: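 Transplantable tumors were established in mice, animals were dosed with compound or vehicle, and survival or tumor size was then measured in both groups. The treated result was divided by the control result.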

[1] = endpoint: median tumor weight (est.), dose: 25.0 mg/kg/injection, schedule: Q07DX005 (ip), vehicle: saline
[2] = endpoint: median tumor weight (est.), dose: 100.0 mg/kg/injection, schedule: Q07DX005 (ip), vehicle: Klucel (hydroxypropylcellulose) (HPC)
[3] = endpoint: median tumor weight (est.), dose: 100.0 mg/kg/injection, schedule: Q07DX005 (ip), vehicle: saline
[4] = endpoint: median tumor weight (est.), dose: 200.0 mg/kg/injection, schedule: Q07DX005 (ip), vehicle: Klucel (hydroxypropylcellulose) (HPC)
[5] = endpoint: median tumor weight (est.), dose: 400.0 mg/kg/injection, schedule: Q07DX005 (ip), vehicle: Klucel (hydroxypropylcellulose) (HPC)
[6] = endpoint: median tumor weight (est.), dose: 400.0 mg/kg/injection, schedule: Q07DX005 (ip), vehicle: saline
[7] = endpoint: median tumor weight change, dose: 31.25 mg/kg/injection, schedule: Q01DX001 (ip), vehicle: saline with Tween-80
[8] = endpoint: median tumor weight (est.), dose: 12.5 mg/kg/injection, schedule: Q07DX005 (ip), vehicle: saline with Tween-80
[9] = endpoint: median tumor weight (est.), dose: 25.0 mg/kg/injection, schedule: Q07DX005 (ip), vehicle: saline with Tween-80
[10] = endpoint: median tumor weight (est.), dose: 200.0 mg/kg/injection, schedule: Q07DX005 (ip), vehicle: saline with Tween-80

Compound: Nc1nc(F)nc2c1ncn2C1OC(COP(=O)(O)O)C(O)C1O (stereo unspecified)
- T/C (endpoint: median tumor weight (est.), dose: 12.5 mg/kg/injection, schedule: Q07DX005 (ip), vehicle: suspension in saline): 69 % of control
- T/C (endpoint: median tumor weight (est.), dose: 25.0 mg/kg/injection, schedule: Q07DX005 (ip), vehicle: Klucel (hydroxypropylcellulose) (HPC)): 49 % of control
- T/C [1]: 84 % of control
- T/C (endpoint: median tumor weight (est.), dose: 25.0 mg/kg/injection, schedule: Q07DX005 (ip), vehicle: suspension in saline): 101 % of control
- T/C (endpoint: median tumor weight (est.), dose: 50.0 mg/kg/injection, schedule: Q07DX005 (ip), vehicle: Klucel (hydroxypropylcellulose) (HPC)): 77 % of control
- T/C (endpoint: median tumor weight (est.), dose: 50.0 mg/kg/injection, schedule: Q07DX005 (ip), vehicle: suspension in saline): 76 % of control
- T/C [2]: 101 % of control
- T/C [3]: 75 % of control and 98 % of control
- T/C (endpoint: median tumor weight (est.), dose: 100.0 mg/kg/injection, schedule: Q07DX005 (ip), vehicle: suspension in saline): 66 % of control
- T/C [4]: 50 % of control
- T/C (endpoint: median tumor weight (est.), dose: 200.0 mg/kg/injection, schedule: Q07DX005 (ip), vehicle: suspension in saline): 50 % of control
- T/C [5]: 34 % of control
- T/C [6]: 20 % of control

Compound: Cc1c2c(c(O)c3c(O)cccc13)C(=O)C1(O)C(O)=C(C(=O)NCNc3ccc(C(N)=O)cn3)C(=O)C(N(C)C)C1C2 (stereo unspecified)
- T/C (endpoint: median tumor weight change, dose: 15.62 mg/kg/injection, schedule: Q01DX001 (ip), vehicle: saline): 82 % of control
- T/C (endpoint: median tumor weight change, dose: 31.25 mg/kg/injection, schedule: Q01DX001 (ip), vehicle: saline): 70 % of control
- T/C (endpoint: median tumor weight change, dose: 62.5 mg/kg/injection, schedule: Q01DX001 (ip), vehicle: saline): 43 % of control
- T/C (endpoint: median tumor weight change, dose: 125.0 mg/kg/injection, schedule: Q01DX001 (ip), vehicle: saline): 34 % of control

Compound: O/N=C/c1ccccc1O.O/N=C/c1ccccc1O.[Cu]
- T/C [7]: 90 % of control
- T/C (endpoint: median tumor weight change, dose: 62.5 mg/kg/injection, schedule: Q01DX001 (ip), vehicle: saline with Tween-80): 59 % of control

Compound: Cc1ccc(S(=O)(=O)NC(=S)S)cc1
- T/C [8]: 110 % of control
- T/C [9]: 94 % of control
- T/C (endpoint: median tumor weight (est.), dose: 100.0 mg/kg/injection, schedule: Q07DX005 (ip), vehicle: saline with Tween-80): 91 % of control
- T/C [10]: 95 % of control
- T/C (endpoint: median tumor weight (est.), dose: 400.0 mg/kg/injection, schedule: Q07DX005 (ip), vehicle: saline with Tween-80): 106 % of control

Compound: C[C@@H](CN1CC(=O)NC(=O)C1)N1CC(=O)NC(=O)C1
- T/C [1]: 75 % of control
- T/C (endpoint: median tumor weight (est.), dose: 50.0 mg/kg/injection, schedule: Q07DX005 (ip), vehicle: saline): 39 % of control
- T/C [2]: 52 % of control
- T/C [3]: 85 % of control
- T/C [4]: 107 % of control
- T/C (endpoint: median tumor weight (est.), dose: 200.0 mg/kg/injection, schedule: Q07DX005 (ip), vehicle: saline): 46 % of control
- T/C [5]: 37 % of control
- T/C [6]: 45 % of control
- T/C (endpoint: median tumor weight (est.), dose: 800.0 mg/kg/injection, schedule: Q07DX005 (ip), vehicle: Klucel (hydroxypropylcellulose) (HPC)): 10 % of control
- T/C (endpoint: median tumor weight (est.), dose: 800.0 mg/kg/injection, schedule: Q07DX005 (ip), vehicle: saline): 13 % of control

Compound: O=C(CO)c1ccc([N+](=O)[O-])cc1
- T/C (endpoint: median tumor weight (est.), dose: 6.25 mg/kg/injection, schedule: Q07DX005 (ip), vehicle: saline with Tween-80): 117 % of control
- T/C [8]: 112 % of control
- T/C [9]: 91 % of control
- T/C (endpoint: median tumor weight (est.), dose: 50.0 mg/kg/injection, schedule: Q07DX005 (ip), vehicle: saline with Tween-80): 118 % of control
- T/C [10]: 86 % of control

Compound: Cc1ccc2c(c1)N=C(Nc1ccccc1)N=S2(C)=O (stereo unspecified)
- T/C (endpoint: median tumor weight change, dose: 7.81 mg/kg/injection, schedule: Q01DX001 (ip), vehicle: saline with Tween-80): 115 % of control
- T/C (endpoint: median tumor weight change, dose: 15.62 mg/kg/injection, schedule: Q01DX001 (ip), vehicle: saline with Tween-80): 121 % of control
- T/C [7]: 67 % of control
- T/C (endpoint: median tumor weight change, dose: 125.0 mg/kg/injection, schedule: Q01DX001 (ip), vehicle: saline with Tween-80): 93 % of control

Compound: CC1=CC(C)(C)Nc2ccc(CSc3ccccc3)cc21
- T/C (endpoint: median tumor weight change, dose: 50.0 mg/kg/injection, schedule: Q01DX001 (ip), vehicle: saline + Tween-80 + alcohol): 46 % of control
- T/C (endpoint: median tumor weight change, dose: 62.0 mg/kg/injection, schedule: Q01DX001 (ip), vehicle: DMSO): 37 % of control
- T/C (endpoint: median tumor weight change, dose: 100.0 mg/kg/injection, schedule: Q01DX001 (ip), vehicle: saline + Tween-80 + alcohol): 37 % of control
- T/C (endpoint: median tumor weight change, dose: 125.0 mg/kg/injection, schedule: Q01DX001 (ip), vehicle: DMSO): 38 % of control
- T/C (endpoint: median tumor weight change, dose: 200.0 mg/kg/injection, schedule: Q01DX001 (ip), vehicle: saline + Tween-80 + alcohol): 47 % of control
- T/C (endpoint: median tumor weight change, dose: 250.0 mg/kg/injection, schedule: Q01DX001 (ip), vehicle: DMSO): 29 % of control
- T/C (endpoint: median tumor weight change, dose: 400.0 mg/kg/injection, schedule: Q01DX001 (ip), vehicle: saline + Tween-80 + alcohol): 46 % of control
- T/C (endpoint: median tumor weight change, dose: 800.0 mg/kg/injection, schedule: Q01DX001 (ip), vehicle: saline + Tween-80 + alcohol): 32 % of control
- T/C (endpoint: median tumor weight change, dose: 2000.0 mg/kg/injection, schedule: Q01DX001 (ip), vehicle: DMSO): 61 % of control

Compound: NC(Cc1cc([N+](=O)[O-])ccc1CN(CCCl)CCCl)C(=O)O (stereo unspecified)
- T/C (endpoint: median tumor weight (est.), dose: 2.0 mg/kg/injection, schedule: Q07DX005 (ip), vehicle: Klucel (hydroxypropylcellulose) (HPC)): 8 % of control

Compound: COc1cccc2c1C(=O)c1c(O)c3c(c(O)c1C2=O)C[C@@](O)(/C(CO)=N/NC(=O)c1ccc(Cl)c(Cl)c1)C[C@@H]3OC1CC(N)C(O)C(C)O1 (stereo partly specified)
- T/C (endpoint: mean tumor weight, dose: 0.75 mg/kg/injection, schedule: Q07DX005 (ip), vehicle: saline): 106 % of control
- T/C (endpoint: mean tumor weight, dose: 1.5 mg/kg/injection, schedule: Q07DX005 (ip), vehicle: saline): 161 % of control
- T/C (endpoint: mean tumor weight, dose: 1.5 mg/kg/injection, schedule: Q07DX006 (ip), vehicle: saline): 118 % of control
- T/C (endpoint: mean tumor weight, dose: 3.0 mg/kg/injection, schedule: Q07DX005 (ip), vehicle: saline): 75 % of control
- T/C (endpoint: mean tumor weight, dose: 3.0 mg/kg/injection, schedule: Q07DX006 (ip), vehicle: saline): 71 % of control
- T/C (endpoint: mean tumor weight, dose: 4.0 mg/kg/injection, schedule: Q07DX004 (ip), vehicle: saline): 86 % of control
- T/C (endpoint: mean tumor weight, dose: 8.0 mg/kg/injection, schedule: Q07DX004 (ip), vehicle: saline): 96 % of control
- T/C (endpoint: mean tumor weight, dose: 12.0 mg/kg/injection, schedule: Q07DX005 (ip), vehicle: saline): 30 % of control
- T/C (endpoint: mean tumor weight, dose: 12.0 mg/kg/injection, schedule: Q07DX006 (ip), vehicle: saline): 32 % of control
- T/C (endpoint: mean tumor weight, dose: 16.0 mg/kg/injection, schedule: Q07DX004 (ip), vehicle: saline): 17 % of control
- T/C (endpoint: median tumor weight (est.), dose: 2.0 mg/kg/injection, schedule: Q07DX005 (ip), vehicle: suspension in saline): 60 % of control
- T/C (endpoint: median tumor weight (est.), dose: 4.0 mg/kg/injection, schedule: Q07DX005 (ip), vehicle: suspension in saline): 150 % of control
- T/C (endpoint: median tumor weight (est.), dose: 8.0 mg/kg/injection, schedule: Q07DX005 (ip), vehicle: suspension in saline): 41 % of control
- T/C (endpoint: median tumor weight (est.), dose: 16.0 mg/kg/injection, schedule: Q07DX005 (ip), vehicle: suspension in saline): 25 % of control

Compound: CCN(CC)CCNc1ccc(CO)c2sc3ccccc3c(=O)c12
- T/C (endpoint: median tumor weight (est.), dose: 6.25 mg/kg/injection, schedule: Q07DX005 (ip), vehicle: water): 62 % of control
- T/C (endpoint: median tumor weight (est.), dose: 12.5 mg/kg/injection, schedule: Q07DX005 (ip), vehicle: clinical formulation): 120 % of control
- T/C (endpoint: median tumor weight (est.), dose: 12.5 mg/kg/injection, schedule: Q07DX005 (ip), vehicle: water): 67 % of control
- T/C (endpoint: median tumor weight (est.), dose: 25.0 mg/kg/injection, schedule: Q07DX005 (ip), vehicle: clinical formulation): 82 % of control
- T/C (endpoint: median tumor weight (est.), dose: 25.0 mg/kg/injection, schedule: Q07DX005 (ip), vehicle: water): 51 % of control
- T/C (endpoint: median tumor weight (est.), dose: 50.0 mg/kg/injection, schedule: Q07DX005 (ip), vehicle: clinical formulation): 53 % of control
- T/C (endpoint: median tumor weight (est.), dose: 50.0 mg/kg/injection, schedule: Q07DX005 (ip), vehicle: water): 39 % of control
- T/C (endpoint: median tumor weight (est.), dose: 100.0 mg/kg/injection, schedule: Q07DX005 (ip), vehicle: clinical formulation): 17 % of control
- T/C (endpoint: median tumor weight (est.), dose: 100.0 mg/kg/injection, schedule: Q07DX005 (ip), vehicle: water): 3 % of control
